From PubChem BioAssay AID220 (DTP/NCI, 2004)
Records with an inconclusive call do not appear.

Tested on: CD8F1 mice, subcutaneous mammary adenocarcinoma, T/C%
Experiment: NCI In Vivo Anticancer Drug Screen. Data for tumor model Mammary Adenocarcinoma CD8F1 (subcutaneous) in CD8F1
Settings: higher = larger tumour
How it was run: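 Mice carrying transplanted tumors received test compound, and survival or tumor size was recorded. Each value is the treated-group measurement divided by the corresponding measurement in vehicle-dosed controls.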

[1] = endpoint: median tumor weight (est.), dose: 0.62 mg/kg/injection, schedule: Q07DX005 (ip), vehicle: saline
[2] = endpoint: median tumor weight (est.), dose: 2.5 mg/kg/injection, schedule: Q07DX005 (ip), vehicle: saline
[3] = endpoint: median tumor weight (est.), dose: 5.0 mg/kg/injection, schedule: Q07DX005 (ip), vehicle: saline

SMILES: O=c1[nH]cnc2[nH]ncc12
- T/C (endpoint: median tumor weight change, dose: 125.0 mg/kg/injection, schedule: Q01DX001 (ip), vehicle: suspension in saline): 104 % of control
- T/C (endpoint: median tumor weight change, dose: 250.0 mg/kg/injection, schedule: Q01DX001 (ip), vehicle: suspension in saline): 71 % of control

SMILES: Cc1ccc(S(=O)(=O)NC(=O)C2C(=O)CC3(CCCCC3)CC2=O)cc1
- T/C (endpoint: median tumor weight change, dose: 31.25 mg/kg/injection, schedule: Q01DX001 (ip), vehicle: Klucel (hydroxypropylcellulose) (HPC)): 93 % of control
- T/C (endpoint: median tumor weight change, dose: 62.5 mg/kg/injection, schedule: Q01DX001 (ip), vehicle: Klucel (hydroxypropylcellulose) (HPC)): 101 % of control
- T/C (endpoint: median tumor weight change, dose: 125.0 mg/kg/injection, schedule: Q01DX001 (ip), vehicle: Klucel (hydroxypropylcellulose) (HPC)): 122 % of control

SMILES: ClC(Cl)(Cl)C1=NCc2nnn(Cc3ccccc3)c2N1
- T/C (endpoint: median tumor weight (est.), dose: 12.5 mg/kg/injection, schedule: Q07DX005 (ip), vehicle: saline with Tween-80): 102 % of control
- T/C (endpoint: median tumor weight (est.), dose: 25.0 mg/kg/injection, schedule: Q07DX005 (ip), vehicle: saline with Tween-80): 66 % of control
- T/C (endpoint: median tumor weight (est.), dose: 100.0 mg/kg/injection, schedule: Q07DX005 (ip), vehicle: saline with Tween-80): 191 % of control
- T/C (endpoint: median tumor weight (est.), dose: 200.0 mg/kg/injection, schedule: Q07DX005 (ip), vehicle: saline with Tween-80): 107 % of control
- T/C (endpoint: median tumor weight (est.), dose: 400.0 mg/kg/injection, schedule: Q07DX005 (ip), vehicle: saline with Tween-80): 96 % of control

SMILES: CC[C@H]1CN2CCc3cc(OC)c(OC)cc3[C@@H]2C[C@@H]1C[C@@H]1c2cc(OC)c(OC)cc2CCN1CCN(CCCl)CCCl
- T/C (endpoint: mean tumor weight, dose: 2.5 mg/kg/injection, schedule: Q07DX005 (ip), vehicle: Klucel (hydroxypropylcellulose) (HPC)): 195 % of control
- T/C (endpoint: mean tumor weight, dose: 5.0 mg/kg/injection, schedule: Q07DX005 (ip), vehicle: Klucel (hydroxypropylcellulose) (HPC)): 181 % of control
- T/C (endpoint: mean tumor weight, dose: 5.0 mg/kg/injection, schedule: Q07DX006 (ip), vehicle: Klucel (hydroxypropylcellulose) (HPC)): 89 % of control
- T/C (endpoint: mean tumor weight, dose: 10.0 mg/kg/injection, schedule: Q07DX005 (ip), vehicle: Klucel (hydroxypropylcellulose) (HPC)): 160 % of control
- T/C (endpoint: mean tumor weight, dose: 10.0 mg/kg/injection, schedule: Q07DX006 (ip), vehicle: Klucel (hydroxypropylcellulose) (HPC)): 169 % of control
- T/C (endpoint: mean tumor weight, dose: 20.0 mg/kg/injection, schedule: Q07DX006 (ip), vehicle: Klucel (hydroxypropylcellulose) (HPC)): 159 % of control

SMILES: O=C(Nc1ccccc1C(=O)O)c1cc([N+](=O)[O-])cc([N+](=O)[O-])c1
- T/C (endpoint: median tumor weight change, dose: 125.0 mg/kg/injection, schedule: Q01DX001 (ip), vehicle: saline with Tween-80): 192 % of control
- T/C (endpoint: median tumor weight change, dose: 250.0 mg/kg/injection, schedule: Q01DX001 (ip), vehicle: saline with Tween-80): 117 % of control

SMILES: CCC1=C[C@H]2CN(CCc3c([nH]c4ccccc34)[C@@](C(=O)OC)(c3cc4c(cc3OC)N(C)[C@H]3[C@@](O)(C(=O)NC)[C@H](OC(C)=O)[C@]5(CC)C=CCN6CC[C@]43[C@@H]65)C2)C1
- T/C (endpoint: median tumor weight (est.), dose: 0.03 mg/kg/injection, schedule: Q07DX005 (ip), vehicle: water): 93 % of control
- T/C (endpoint: median tumor weight (est.), dose: 0.06 mg/kg/injection, schedule: Q07DX005 (ip), vehicle: water): 98 % of control
- T/C (endpoint: median tumor weight (est.), dose: 0.12 mg/kg/injection, schedule: Q07DX005 (ip), vehicle: water): 91 % of control
- T/C (endpoint: median tumor weight (est.), dose: 0.5 mg/kg/injection, schedule: Q07DX005 (ip), vehicle: saline): 86 % of control
- T/C (endpoint: median tumor weight (est.), dose: 0.5 mg/kg/injection, schedule: Q07DX005 (ip), vehicle: water): 73 % of control
- T/C (endpoint: median tumor weight (est.), dose: 1.0 mg/kg/injection, schedule: Q07DX005 (ip), vehicle: saline): 46 % of control
- T/C (endpoint: median tumor weight (est.), dose: 1.0 mg/kg/injection, schedule: Q07DX005 (ip), vehicle: water): 57 % of control
- T/C (endpoint: median tumor weight (est.), dose: 2.0 mg/kg/injection, schedule: Q07DX005 (ip), vehicle: water): 3 % of control

SMILES: CC(C)CC(NC(=O)CF)C(=O)O (configuration not stated)
- T/C [1]: 81 % of control
- T/C [2]: 39 % of control
- T/C [3]: 99 % of control
- T/C (endpoint: median tumor weight (est.), dose: 10.0 mg/kg/injection, schedule: Q07DX005 (ip), vehicle: saline): 41 % of control

SMILES: C1CCC2[N-]CC3CCCCC3[N-]CC3CCCCC3[N-]CC3CCCCC3[N-]CC2C1.[Cu] (configuration not stated)
- T/C (endpoint: median tumor weight (est.), dose: 6.25 mg/kg/injection, schedule: Q07DX005 (ip), vehicle: Klucel (hydroxypropylcellulose) (HPC)): 71 % of control
- T/C (endpoint: median tumor weight (est.), dose: 12.5 mg/kg/injection, schedule: Q07DX005 (ip), vehicle: Klucel (hydroxypropylcellulose) (HPC)): 99 % of control
- T/C (endpoint: median tumor weight (est.), dose: 25.0 mg/kg/injection, schedule: Q07DX005 (ip), vehicle: Klucel (hydroxypropylcellulose) (HPC)): 80 % of control

SMILES: CC(=O)C(O)N1C(=O)C=CC1=O (configuration not stated)
- T/C [1]: 78 % of control
- T/C (endpoint: median tumor weight (est.), dose: 1.25 mg/kg/injection, schedule: Q07DX005 (ip), vehicle: saline): 74 % of control
- T/C [2]: 77 % of control
- T/C [3]: 50 % of control
